We go through one compound from PMC6155437 (Molecules : A Journal of Synthetic Chemistry and Natural …, 2017).

By pKi is commonly meant the Ki on a negative log10 scale, so that one unit is a factor of ten. Low values mean a high Ki, high ones a low Ki. What is called IC50 is the concentration that gives 50% inhibition. Higher therefore signals weaker potency in that assay.

What all share (format): in vitro ADME
Data set [1] has as its target T1, CYP2C8 (Homo sapiens, UniProt P10632).
T1 construct: tissue Corning Life Sciences; host or cells: pooled human liver microsomes (150 donors)
T1 sequence (P10632 1-490): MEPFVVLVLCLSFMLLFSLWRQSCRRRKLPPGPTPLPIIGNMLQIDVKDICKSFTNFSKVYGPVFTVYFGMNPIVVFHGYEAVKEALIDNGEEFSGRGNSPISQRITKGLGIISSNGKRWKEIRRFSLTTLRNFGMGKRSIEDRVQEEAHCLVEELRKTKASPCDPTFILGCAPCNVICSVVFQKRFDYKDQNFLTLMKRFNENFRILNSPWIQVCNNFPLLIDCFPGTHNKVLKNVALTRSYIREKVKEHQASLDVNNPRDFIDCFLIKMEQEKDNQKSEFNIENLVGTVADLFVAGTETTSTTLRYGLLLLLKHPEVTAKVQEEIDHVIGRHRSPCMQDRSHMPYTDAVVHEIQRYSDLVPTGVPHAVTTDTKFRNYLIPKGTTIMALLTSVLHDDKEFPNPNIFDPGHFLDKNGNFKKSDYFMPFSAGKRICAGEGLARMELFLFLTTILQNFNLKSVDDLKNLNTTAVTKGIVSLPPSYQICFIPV
The data set can be described thus: CYP2C8 amodiaquine N-deethylase inhibition and mechanism-based inactivation in human liver microsomes. The conditions noted are these: for IC50: Amodiaquine N-deethylase. Here is the method:
After a 3-min pre-incubation at 37 °C, the reactions were initiated by addition of NADPH and incubation proceeded for 15 min at 37 °C in a shaking water bath. […] The incubation mixtures were centrifuged (13,000× g, 4 min, 4 °C). All assays were performed in triplicate and mean values were used in calculations.
Each reaction was initiated by adding the seven-CYP probe substrate cocktail.
The second reaction was terminated after incubation for 10 min by adding 100-µL amounts of ice-cold methanol containing d9-1′-hydroxybufuralol. The incubation mixtures were centrifuged (13,000× g, 4 min, 4 °C), and then 50 µL of each supernatant was diluted with 50 µL of water. Aliquots (5 µL) of the diluted supernatants were analyzed by LC-MS/MS.
The metabolites formed from CYP substrates were quantified simultaneously by a LC-MS/MS method described previously. The ESI source settings in positive-ion mode for metabolite ionization were: capillary voltage, 4200 V; vaporizer temperature, 350 °C; capillary temperature, 330 °C; sheath gas pressure, 35 psi; and auxiliary gas pressure, 15 psi. Quantification was performed by selected reaction monitoring (SRM) of the [M + H]^+ ion and the related product ion for each metabolite: acetaminophen, 152.1 > 110.3; N-desethylamodiaquine, 328.1 > 283.0; 7-hydroxycoumarin, 163.0 > 107.2; 4-hydroxybupropion, 256.1 > 238.0; 4′-hydroxydiclofenac, 312.0 > 231.1; 4′-hydroxy-mephenytoin; 235.1 > 150.1; 1′-hydroxybufuralol, 278.1 > 186.1; 1′-hydroxymidazolam, 341.9 > 324.0; ^13C2,^15N-acetaminophen 155.1 > 111.2; and d9-1′-hydroxybufuralol, 287.2 > 187.0. Analytical data were processed using Xcalibur software (version 2.1, Thermo Scientific).
(§1) The apparent kinetic parameters for inhibitory potential (Ki and kinact values) and inhibition mode were estimated from the fitted curves using the Enzyme Kinetics program (ver. 1.1; Systat Software Inc., San Jose, CA, USA).
In general terms: Microsomes from liver hold many membrane-bound enzymes, among them those of drug oxidation.

Data set [2] has as its target T2, UGT1A4 (Homo sapiens, UniProt P22310).
T2 construct: pooled human liver microsomes (0.2 mg/mL), 5 mM UDPGA; tissue Corning Life Sciences; host or cells: pooled human liver microsomes (150 donors)
T2 sequence (P22310 29-534): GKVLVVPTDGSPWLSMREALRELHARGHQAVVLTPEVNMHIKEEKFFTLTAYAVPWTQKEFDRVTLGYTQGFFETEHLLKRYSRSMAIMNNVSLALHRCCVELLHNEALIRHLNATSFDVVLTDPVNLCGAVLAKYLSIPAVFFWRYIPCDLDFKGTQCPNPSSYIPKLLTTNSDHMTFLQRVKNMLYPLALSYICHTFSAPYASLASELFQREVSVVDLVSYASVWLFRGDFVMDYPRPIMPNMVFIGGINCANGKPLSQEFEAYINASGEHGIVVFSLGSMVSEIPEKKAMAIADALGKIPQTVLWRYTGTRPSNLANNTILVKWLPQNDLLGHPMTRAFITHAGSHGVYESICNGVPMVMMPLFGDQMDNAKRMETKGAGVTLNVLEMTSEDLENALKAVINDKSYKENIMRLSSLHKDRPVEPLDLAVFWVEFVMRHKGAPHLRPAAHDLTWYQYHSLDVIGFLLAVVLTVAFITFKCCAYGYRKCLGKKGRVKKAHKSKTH
The data set can be described thus: UGT1A4 trifluoperazine N-glucuronidation inhibition in human liver microsomes. The following applies: at 50 µM. Here is the method: (§2) After 3 min of pre-incubation at 37 °C, the reactions were initiated by addition of UDPGA; incubation continued for 60 min at 37 °C in a shaking water bath. The reaction was stopped by placing the tubes on ice and adding 50 µL ice-cold acetonitrile containing internal standards (propofol glucuronide for chenodeoxycholic acid 24-acyl-β-glucuronide and mycophenolic acid glucuronide, and meloxicam for SN-38 glucuronide, trifluoperazine glucuronide, N-acetylserotonin β-D-glucuronide, and naloxone 3-β-D-glucuronide). The incubation mixtures were centrifuged (13,000× g, 4 min, 4 °C). All assays were performed in triplicate and average values were used in calculations.
(§3) The metabolites formed from the six UGT cocktail substrates were measured simultaneously using the LC-MS/MS method. The ESI source settings in both positive- and negative-ion modes for metabolite ionization were: capillary voltage, 4200 V; vaporizer temperature, 350 °C; capillary temperature, 330 °C; sheath gas pressure, 35 psi; and auxiliary gas pressure, 15 psi. […] Data were processed using Xcalibur software.
as §1

The target of data set [3] is T3, UGT1A9 (Homo sapiens, UniProt O60656).
T3 construct: pooled human liver microsomes (0.2 mg/mL), 5 mM UDPGA; tissue Corning Life Sciences; host or cells: pooled human liver microsomes (150 donors)
T3 sequence (O60656 26-530): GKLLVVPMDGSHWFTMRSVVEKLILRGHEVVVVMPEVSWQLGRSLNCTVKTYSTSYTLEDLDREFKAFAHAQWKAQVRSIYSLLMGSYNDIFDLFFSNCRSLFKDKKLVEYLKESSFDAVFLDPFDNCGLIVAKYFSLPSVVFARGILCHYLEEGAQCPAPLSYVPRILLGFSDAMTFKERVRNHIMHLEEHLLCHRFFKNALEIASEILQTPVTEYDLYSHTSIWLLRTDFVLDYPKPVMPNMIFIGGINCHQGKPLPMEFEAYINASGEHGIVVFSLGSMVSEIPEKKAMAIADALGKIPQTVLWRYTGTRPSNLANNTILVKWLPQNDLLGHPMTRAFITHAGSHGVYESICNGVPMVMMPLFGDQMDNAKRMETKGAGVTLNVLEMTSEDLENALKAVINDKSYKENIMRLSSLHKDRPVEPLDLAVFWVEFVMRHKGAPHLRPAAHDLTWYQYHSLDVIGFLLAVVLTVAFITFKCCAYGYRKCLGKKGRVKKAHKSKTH
In words: UGT1A9 mycophenolic acid glucuronidation inhibition in human liver microsomes. The conditions noted are these: at 50 µM. Here is the method:
as §2, §3, §1

pKi: −log10 of the molar value.

In turn, `O=C(c1cccc2ccccc12)c1cn(CCCCCF)c2ccccc12` [AM-2201, 1-(5-fluoropentyl-1H-indol-3-yl)-(naphthalene-1-yl)methanone] had a pKi in data set [1] of 5.68. In addition, in data set [1] (CYP2C8 amodiaquine N-deethylation), the Inhibition Mode result is “mechanism-based inhibitor”. The IC50 in data set [1] (IC50 (μM) No Preincubation, CYP2C8, human liver microsomes, 2.5 μM amodiaquine) was 53.8 µM; in data set [1] (IC50 (μM) With Preincubation, CYP2C8, 30 min preincubation with NADPH), 6.9 µM. Further, the “inhibition of UGT1A4-catalyzed trifluoperazine N-glucuronidation” value in data set [2] is reported as “negligibly inhibited”. For the same compound, the “inhibition of UGT1A9-catalyzed mycophenolic acid glucuronidation” value in data set [3] was “negligibly inhibited”.
